{"source": "patent US20250040503A1", "about": "“METHOD FOR PRODUCING HAPLOID, AND DOUBLED HAPLOID BETA VULGARIS PLANTS BY MICROSPORE CULTURE” (KWS SAAT SE & Co. KGaA, priority 2021, published 2025)", "system": "Beta vulgaris (sugar beet) microspores", "experiment": "Callus induction from isolated sugar beet microspores (microspore culture)", "format": "cell-based", "details": "for callus induction potential in comparison to TSA: comparator TSA 5 μM, same time point, duration and buffer", "text": "The experimental set-up is detailed in the below Examples. In the Figures, each column represents a different genotype. […] Time point, duration and buffer used were always identical for all treatments in the different rows. The different rows thus only differ from each other in the kind of inhibitor used.\nBracteoles are cut off the inflorescence and buds bigger than 1.8 mm are removed. Remaining part is divided into smaller pieces, preferably pieces of 1-1.5 cm. Buds smaller than 1.8 mm contain typically microspores at the tetrad and uninuclear developmental stage, which are the optimal developmental stages for further progressing. However, it should be noted that due to broad variation of different genotypes and donor sources (e.g., monogerm and multigerm), the correlation between the maximum flower bud size and nuclear stages of the microspores needs to be established for each genotype individually. The determination of the nuclear stages is carried out using a fluorescence-based staining method. The method contains fixation of the cells for instances with Ethanol acetic acid and DAPI staining (Kim, Moon-Za, and In-Chang Jang. “Rapid Assessment of Microspore Development Stage in Pepper Using DAPI and Ferric chloride.” Journal of Plant Biotechnology 2.3 (2000): 129-134.).\nThe flower shoot segments are transferred to isolation buffer, e.g., in a blending device and 40 ml (isolation buffer, Table 1) is added. The Isolation buffer contains macro- and microsalts, amino acids, monosaccharides and one or more complex protein compositions, pH is adjusted to pH 7.5. The complex protein composition or its source comprises preferably hydrolysed or partially hydrolysed protein matter or protein source. It can derive from any source that is known or that be applicable in addition, such as milk (such as, casein, whey), animal (such as, meat, fish), cereal (such as, rice, corn), plant (such as, soybean) or its combination. This proteinoid comprises milk protein isolates, as described herein lactoprotein concentrate, casein isolates, casein hydrolysate, lactalbumin, casein-sodium or calcium caseinate, full cow's milk, partially or completely skimmed milk, soy protein isolate, soybean protein concentrate etc. In one embodiment, complex protein composition comprises the protein source of the milk protein deriving from bovine milk.\nThe material is homogenized, e.g., by means of a homogenizer such as a Waring blender or sonication device at around 3000 rpm for 1 min. The crude cell suspension is passed stepwise through cell strainers of pore sizes between 25 μm and 100 μm. The purified suspension is transferred into tubes for subsequent centrifugation at ˜200 g for 3 min.\nThe supernatant is removed and the pellet is resuspended in a suitable amount of isolation buffer. An aliquot of the cell solution is taken for evaluation of the number of cells per ml by means of a counting chamber. Cell density is adjusted preferably to a cell density of 25,000 to 500,000 cells with TM media.\nIf the HDACi trichostatin A (TSA) is used, it is dissolved in dimethylsulfoxide (DMSO) to a final concentration of between 1 nM and 10 μM, preferably 100 nM to 10 μM, more preferably 1 μM to 10 μM, depending on the genotype and the donor sources (e.g., monogerm and multigerm). Other non-limiting examples of HDACi which may be used belong to the class of hydroxamic acids and hydroxamates, such as vorinostat (SAHA), belinostat (PXD101), LAQ824, and panobinostat (LBH589). Other non-limiting examples of HDACis for use according to the invention include cyclic tetrapeptides (such as trapoxin B) and depsipeptides, such as romidepsin (FK228), benzamides such as entinostat (MS-275), C1994, and mocetinostat (MGCD0103), electrophilic ketones, and aliphatic acid compounds such as phenylbutyrate and valproic acid.\nAfter 1 to 10 days incubation at 32° C. the TSA is removed by centrifugation preferably at ˜200 g.", "note": "“Also recorded” adds a separate entry of the source."}
{"smiles": "Cc1sc2c(c1C)C(c1ccc(Cl)cc1)=N[C@@H](CC(N)=O)c1nnc(C)n1-2", "note": "[CPI-203]", "values": [{"measurement": "callus induction", "setting": "CPI-203 1 μM, 2.5 μM and 5 μM, 6 genotypes, FIG. 6", "result": "slight positive effect; also recorded: very small, but positive, effect"}, {"measurement": "callus induction potential in comparison to TSA", "result": "performed worse than TSA"}]}
{"smiles": "CC(=O)N1c2ccc(-c3ccc(C(=O)O)cc3)cc2[C@H](Nc2ccc(Cl)cc2)C[C@@H]1C", "note": "[I-Bet 726]", "values": [{"measurement": "callus induction", "setting": "I-Bet 726 1 μM, 2.5 μM and 5 μM, FIG. 7", "result": "No callus induction"}]}
{"smiles": "O=C(CCCCCCC(=O)Nc1ccccc1)NO", "note": "[SAHA, vorinostat]", "values": [{"measurement": "toxicity in comparison to TSA", "setting": "SAHA 1 μM and 5 μM vs TSA 5 μM, microspore culture", "result": "more toxic"}, {"measurement": "callus induction", "setting": "SAHA 1 μM and 5 μM, same buffer as TSA, six genotypes, FIG. 4", "result": "good effect on some genotypes"}, {"measurement": "callus induction potential in comparison to TSA", "result": "less effective than TSA"}]}
{"smiles": "CC(/C=C/C(=O)NO)=C\\[C@@H](C)C(=O)c1ccc(N(C)C)cc1", "note": "[TSA, trichostatin A]", "values": [{"measurement": "callus induction", "setting": "TSA 5 μM, six genotypes, positive control of FIG. 4 to FIG. 7", "result": "strong callus induction in all six genotypes"}, {"measurement": "callus induction performance at other concentrations", "setting": "TSA in the lower μM or even nM range and in higher concentrations, data not shown", "result": "performed well"}, {"measurement": "callus induction potential in comparison to TSA", "result": "performed best"}]}
